Laboratory results: publication PMC6751184, “Heme and hemoglobin utilization by Mycobacterium tuberculosis” (Nature Communications, 2019)

Biological target: DppA (Rv3666c), substrate-binding protein of the Dpp transporter (Mycobacterium tuberculosis, UniProt I6X811)
Test: […]; also difference absorption spectroscopy

Chain of DppA (Rv3666c), substrate-binding protein of the Dpp transporter (I6X811 entry or part of it): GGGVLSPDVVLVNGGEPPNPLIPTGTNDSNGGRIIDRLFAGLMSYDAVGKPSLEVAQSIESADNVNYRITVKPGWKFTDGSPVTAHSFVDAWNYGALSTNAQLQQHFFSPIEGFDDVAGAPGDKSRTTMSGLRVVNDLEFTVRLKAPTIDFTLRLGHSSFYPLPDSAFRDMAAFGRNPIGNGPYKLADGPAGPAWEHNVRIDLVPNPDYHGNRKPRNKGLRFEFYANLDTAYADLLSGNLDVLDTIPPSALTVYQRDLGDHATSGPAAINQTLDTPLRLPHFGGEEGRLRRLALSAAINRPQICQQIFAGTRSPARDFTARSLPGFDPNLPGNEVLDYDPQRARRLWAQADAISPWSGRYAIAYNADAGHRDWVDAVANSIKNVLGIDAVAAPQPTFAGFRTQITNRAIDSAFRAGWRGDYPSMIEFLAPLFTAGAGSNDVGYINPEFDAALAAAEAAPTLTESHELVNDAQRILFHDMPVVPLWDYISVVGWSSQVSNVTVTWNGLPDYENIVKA

Compound `C=CC1=C(C)C2=Cc3c(C=C)c(C)c4[n]3[Fe]([Cl])[n]3c(c(C)c(CCC(=O)O)c3=CC3=NC(=C4)C(C)=C3CCC(=O)O)=CC1=N2` [hemin] has a Kd of ~1500 nM.
